Source: US20250115576A1, “THERAPEUTIC COMPOUNDS AND METHODS OF USE THEREOF” (Genentech, Inc., priority 2018, published 2025)
Structures can show the parent of a compound that is named as a salt.

Columns and labels:
hNav1.7 [1] = molecular target: T1, hNav1.7 (Homo sapiens (Human), UniProt Q15858); experiment: Tritiated compound binding to membranes from cells expressing hNav1.7 and the β1 subunit (Nav1.7 LBA); details: competitive binding vs [3H]compound, membranes with hNav1.7 and β1 subunit; read-out: Nav1.7 LBA EVO IC50
Experimental: Example 64a. Tritiated Compound Binding to Membranes Isolated from Cells that Heterologously Express hNav1.7 and the β 1 Subunit
Preparation of membranes containing recombinantly expressed sodium channels: Frozen recombinant cell pellets are thawed on ice and diluted to 4 times the cell pellet weight with ice cold 50 mM Tris HCl, pH 7.4 buffer. The cell suspensions are homogenized on ice using a motorized glass dounce homogeniser. Homogenates are further diluted 8.4 times with ice cold 50 mM Tris HCl, pH 7.4 buffer and then centrifuged at 200×g at 4° C. for 15 minutes. The supernatants are collected and centrifuged at 10000×g at 4° C. for 50 min. The pellets are then re-suspended in 100 mM NaCl, 20 mM Tris HCl, pH 7.4 buffer containing 1% v/v protease inhibitors (Calbiochem) and re-homogenized on ice. The homogenized membranes are then processed through a syringe equipped with a 26 gauge needle. Protein concentrations arer determined by Bradford Assay and the membranes are stored at −80° C.
Radioligand Binding Studies: Saturation experiments. A competitive NaV1.7 inhibitor having a methyl group is tritiated. Three tritiums are incorporated in place of methyl hydrogens to generate [^3H]compound. Binding of this radioligand is performed in 5 mL borosilicate glass test tubes at room temperature. Binding is initiated by adding membranes to increasing concentrations of [^3H]compound in 100 mM NaCl, 20 mM Tris HCl, pH 7.4 buffer containing 0.01% w/v bovine serum albumin (BSA) for 18 h. Non-specific binding is determined in the presence of 1 μM unlabeled compound. After 18 h, the reactants are filtered through GF/C glass fiber filters presoaked in 0.5% w/v polyethylene imine. […] [^3H]compound bound to filters is quantified by liquid scintillation counting.
Competitive binding experiments: Binding reactions are performed in 96-well polypropylene plates at room temperature for 18 h. […] Bound radioactivity is determined by liquid scintillation counting.
Data Analysis: For saturation experiments, non-specific binding is subtracted from total binding to provide specific binding and these values are recalculated in terms of pmol ligand bound per mg protein. Saturation curves are constructed and dissociation constants are calculated using the single site ligand binding model: Beq=(Bmax*X)/(X+Kd), where Beq is the amount of ligand bound at equilibrium, Bmax is the maximum receptor density, Kd is the dissociation constant for the ligand, and X is the free ligand concentration. For competition studies percent inhibition is determined and IC50 values are calculated using a 4 parameter logistic model (% inhibition=(A+((B−A)/(1+((x/C)^D)))) using XLfit, where A and B are the maximal and minimum inhibition respectively, C is the IC50 concentration and D is the (Hill) slope. […]
Target sequence in this assay (Q15858 whole entry, looked up): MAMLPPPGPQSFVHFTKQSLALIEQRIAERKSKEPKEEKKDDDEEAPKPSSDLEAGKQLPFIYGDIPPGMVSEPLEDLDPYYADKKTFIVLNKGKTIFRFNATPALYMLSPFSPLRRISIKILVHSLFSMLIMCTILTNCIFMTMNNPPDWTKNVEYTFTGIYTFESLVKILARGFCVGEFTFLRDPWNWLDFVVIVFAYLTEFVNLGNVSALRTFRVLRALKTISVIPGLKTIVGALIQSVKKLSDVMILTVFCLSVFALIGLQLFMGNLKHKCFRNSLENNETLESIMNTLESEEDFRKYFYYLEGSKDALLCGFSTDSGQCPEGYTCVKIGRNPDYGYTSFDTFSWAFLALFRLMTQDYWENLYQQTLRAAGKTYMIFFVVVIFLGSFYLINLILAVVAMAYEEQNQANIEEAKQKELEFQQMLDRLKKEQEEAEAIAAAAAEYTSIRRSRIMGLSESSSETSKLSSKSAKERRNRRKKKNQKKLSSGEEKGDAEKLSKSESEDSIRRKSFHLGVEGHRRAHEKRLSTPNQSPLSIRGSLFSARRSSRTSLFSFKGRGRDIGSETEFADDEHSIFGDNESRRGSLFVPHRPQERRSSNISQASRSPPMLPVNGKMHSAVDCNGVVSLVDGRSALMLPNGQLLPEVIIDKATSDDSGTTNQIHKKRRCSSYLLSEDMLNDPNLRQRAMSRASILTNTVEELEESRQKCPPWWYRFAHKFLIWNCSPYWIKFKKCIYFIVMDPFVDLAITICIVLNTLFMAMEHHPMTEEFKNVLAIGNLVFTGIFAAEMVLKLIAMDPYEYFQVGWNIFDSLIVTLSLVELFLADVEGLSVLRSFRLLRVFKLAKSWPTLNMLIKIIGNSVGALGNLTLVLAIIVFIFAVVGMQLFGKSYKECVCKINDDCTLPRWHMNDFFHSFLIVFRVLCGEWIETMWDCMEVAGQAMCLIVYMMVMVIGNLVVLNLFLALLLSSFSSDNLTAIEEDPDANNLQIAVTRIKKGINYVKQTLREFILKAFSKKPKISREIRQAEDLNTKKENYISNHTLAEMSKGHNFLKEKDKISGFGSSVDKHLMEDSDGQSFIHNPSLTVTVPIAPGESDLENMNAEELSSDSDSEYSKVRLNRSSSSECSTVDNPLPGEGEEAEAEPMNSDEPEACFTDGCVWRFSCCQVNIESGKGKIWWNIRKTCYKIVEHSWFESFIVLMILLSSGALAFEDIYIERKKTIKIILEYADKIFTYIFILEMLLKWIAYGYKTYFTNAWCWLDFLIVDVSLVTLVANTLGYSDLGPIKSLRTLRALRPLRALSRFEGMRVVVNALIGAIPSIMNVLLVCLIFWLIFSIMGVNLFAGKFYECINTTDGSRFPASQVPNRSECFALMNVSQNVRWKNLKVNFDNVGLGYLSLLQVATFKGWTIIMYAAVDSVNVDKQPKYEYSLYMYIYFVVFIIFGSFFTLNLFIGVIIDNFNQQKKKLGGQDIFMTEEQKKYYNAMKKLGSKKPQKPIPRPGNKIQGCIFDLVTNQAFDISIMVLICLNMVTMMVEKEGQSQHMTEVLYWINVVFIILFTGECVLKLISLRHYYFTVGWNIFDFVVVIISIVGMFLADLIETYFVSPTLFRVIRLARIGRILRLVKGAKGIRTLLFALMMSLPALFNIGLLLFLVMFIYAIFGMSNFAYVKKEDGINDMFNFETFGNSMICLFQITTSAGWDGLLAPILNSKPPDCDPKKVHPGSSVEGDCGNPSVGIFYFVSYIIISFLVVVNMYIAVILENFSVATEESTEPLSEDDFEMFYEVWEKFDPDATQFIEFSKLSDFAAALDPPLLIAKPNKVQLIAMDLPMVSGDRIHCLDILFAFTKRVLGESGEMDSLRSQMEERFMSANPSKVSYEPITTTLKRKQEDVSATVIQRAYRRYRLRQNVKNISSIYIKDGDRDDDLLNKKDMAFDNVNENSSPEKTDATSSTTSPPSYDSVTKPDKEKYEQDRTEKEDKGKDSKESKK
Target sequence in this assay (Q07699 whole entry partner, looked up): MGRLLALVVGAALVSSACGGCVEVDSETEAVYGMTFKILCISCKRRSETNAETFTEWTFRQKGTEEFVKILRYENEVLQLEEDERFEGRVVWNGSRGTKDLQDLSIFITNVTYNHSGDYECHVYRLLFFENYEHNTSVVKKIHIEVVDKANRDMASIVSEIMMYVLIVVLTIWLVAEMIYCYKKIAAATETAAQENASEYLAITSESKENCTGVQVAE

hNav1.7 [2] = molecular target: T1, hNav1.7; experiment: Patch voltage clamp electrophysiology (EP), Syncropatch 384PE, CHO cells stably expressing Nav1.7; type: cell-based; details: holding potential −50 mV, 7.5 min compound incubation, read-out: EP_SP hNav1.7 EVO IC50
Text: Example 64c. Electrophysiological Assay (EP) (In Vitro Assay)
Patch voltage clamp electrophysiology allows for the direct measurement and quantification of block of voltage-gated sodium channels (NaV's), and allows the determination of the time- and voltage-dependence of block which has been interpreted as differential binding to the resting, open, and inactivated states of the sodium channel (Hille, B., Journal of General Physiology (1977), 69: 497-515).
The following voltage clamp electrophysiology studies are performed on representative compounds using cells heterologously expressing Nav1.7 or Nav1.5 channels. cDNAs for Nav1.7 (NM_002977) and Nav1.5 (AC137587) are stably expressed in Chinese Hamstr Ovary (CHO) cells and CHL (Chinese Hamster Lung) cells respectively. Sodium currents are measured in the whole-cell configuration using Syncropatch 384PE (Nanlon Technologies, Germany). 1NPC®-384 chips with custom medium resistance and single hole mode are used. Internal solution consists of (in mM): […], 10 CsCl, 20 EGTA, and 10 Hepes (pH adjusted to 7.2); and external solution contains (in mM): 60 NMDG, 80 NaCl, 4 KCl, 1 MgCl2, 2 CaCl2, 2 D-Glucose monohydrate, 10 Hepes (pH adjusted to 7.4 with NaOH).
After system flushing, testing compounds are dissolved in external solution containing 0.1% Pluronic F-127. The chip is moved into the measuring head and the instrument primes the chip with external and internal solutions. 10 μl cells are added to the chip from a cell hotel, and a negative pressure of −50 mBar is applied to form a seal. Following treatment with seal enhancer solution and wash-off with external solution, negative pressure of −250 mbar is applied for 1 second to achieve the whole-cell configuration, followed by three washing steps in external solution. 20 μl of compounds is added to 40 μl in each well (1:3 dilution of compounds), and after mixing, 20 μl is removed so the volume is retained at 40 ul. After approximately 13 minutes recordings, 20 μl/well of 2 uM TTX, or 333 uM Tetracaine (for […]) is added to achieve full block.
For voltage protocol, an holding potential of −50 mV is applied during the whole experiment. A depolarizing step is applied to −10 mV for 10 ms, followed by a hyperpolarization step to −150 mV for 20 ms to allow channel recovery from inactivation. A second depolarizing step is applied from −150 mV to −10 mV for 10 ms, where currents are measured to derive blocking effects of compounds. Inhibition is determined based on 7.5 min of compound incubation.
Target sequence in this assay (Q15858 other isoform, or with tags, fused parts or gaps): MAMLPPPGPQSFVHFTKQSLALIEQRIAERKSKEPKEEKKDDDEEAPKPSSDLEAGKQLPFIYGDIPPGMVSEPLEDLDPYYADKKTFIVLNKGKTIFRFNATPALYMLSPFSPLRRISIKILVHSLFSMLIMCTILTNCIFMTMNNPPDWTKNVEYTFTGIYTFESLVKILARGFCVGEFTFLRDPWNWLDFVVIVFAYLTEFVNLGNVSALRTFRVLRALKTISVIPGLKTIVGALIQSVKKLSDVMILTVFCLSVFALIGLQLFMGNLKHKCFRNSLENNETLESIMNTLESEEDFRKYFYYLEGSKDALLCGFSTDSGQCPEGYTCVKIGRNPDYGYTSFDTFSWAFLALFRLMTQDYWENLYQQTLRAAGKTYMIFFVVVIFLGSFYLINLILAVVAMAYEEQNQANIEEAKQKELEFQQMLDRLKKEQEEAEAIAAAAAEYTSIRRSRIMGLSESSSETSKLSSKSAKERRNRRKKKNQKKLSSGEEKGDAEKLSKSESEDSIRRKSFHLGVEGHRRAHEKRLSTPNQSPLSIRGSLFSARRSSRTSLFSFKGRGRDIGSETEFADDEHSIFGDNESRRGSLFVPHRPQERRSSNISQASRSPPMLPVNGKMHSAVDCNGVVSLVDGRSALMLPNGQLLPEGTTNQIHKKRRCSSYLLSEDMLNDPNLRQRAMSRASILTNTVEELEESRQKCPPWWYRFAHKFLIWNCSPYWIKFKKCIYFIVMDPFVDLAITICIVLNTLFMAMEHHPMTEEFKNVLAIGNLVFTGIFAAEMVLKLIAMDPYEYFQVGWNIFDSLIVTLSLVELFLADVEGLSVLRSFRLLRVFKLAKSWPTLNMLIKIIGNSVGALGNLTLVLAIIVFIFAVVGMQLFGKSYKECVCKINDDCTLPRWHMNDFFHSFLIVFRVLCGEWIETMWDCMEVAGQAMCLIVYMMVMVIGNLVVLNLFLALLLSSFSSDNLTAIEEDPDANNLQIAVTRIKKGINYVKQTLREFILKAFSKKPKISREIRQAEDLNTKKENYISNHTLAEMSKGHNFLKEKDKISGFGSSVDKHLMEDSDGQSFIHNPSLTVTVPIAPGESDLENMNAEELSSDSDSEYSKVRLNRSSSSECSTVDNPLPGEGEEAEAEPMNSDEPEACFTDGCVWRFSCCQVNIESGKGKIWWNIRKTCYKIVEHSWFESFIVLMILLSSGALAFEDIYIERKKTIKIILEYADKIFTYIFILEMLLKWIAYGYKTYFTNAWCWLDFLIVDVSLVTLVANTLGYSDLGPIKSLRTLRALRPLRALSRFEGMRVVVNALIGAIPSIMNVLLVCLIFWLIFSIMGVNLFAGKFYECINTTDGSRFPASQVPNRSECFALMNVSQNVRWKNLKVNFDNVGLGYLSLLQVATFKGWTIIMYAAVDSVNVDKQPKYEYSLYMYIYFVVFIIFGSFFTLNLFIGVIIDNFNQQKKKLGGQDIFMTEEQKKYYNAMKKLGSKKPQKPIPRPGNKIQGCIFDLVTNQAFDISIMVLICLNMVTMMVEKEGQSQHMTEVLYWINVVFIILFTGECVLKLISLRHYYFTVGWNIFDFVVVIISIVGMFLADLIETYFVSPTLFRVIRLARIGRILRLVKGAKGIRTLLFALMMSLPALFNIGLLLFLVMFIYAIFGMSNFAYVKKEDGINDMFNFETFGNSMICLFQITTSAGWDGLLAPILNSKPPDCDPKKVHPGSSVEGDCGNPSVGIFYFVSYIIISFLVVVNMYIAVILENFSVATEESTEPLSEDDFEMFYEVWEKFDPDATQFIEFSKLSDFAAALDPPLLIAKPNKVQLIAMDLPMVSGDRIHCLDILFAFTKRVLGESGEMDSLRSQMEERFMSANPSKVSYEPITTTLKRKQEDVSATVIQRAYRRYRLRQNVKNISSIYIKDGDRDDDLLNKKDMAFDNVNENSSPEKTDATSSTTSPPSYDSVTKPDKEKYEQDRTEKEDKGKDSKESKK

Row | Molecule | IC50 (hNav1.7 [1]) [nM] | IC50 (hNav1.7 [2]) [nM]
1 | 6-(((1S,2S,4S)-4-(3-(1,1-difluoroethyl)phenyl)-2-(dimethylamino)cyclohexyl)oxy)-2-methyl-N-(pyrimidin-4-yl)pyridine-3-sulfonamide [Example 41] | 1.9 | 1.95
2 | Cc1nc(O[C@H]2CC[C@H](c3cccc(C(F)(F)F)n3)C[C@@H]2N(C)C)ccc1S(=O)(=O)Nc1ccncn1 [Example 51, 6-(((1S,2S,4S)-2-(dimethylamino)-4-(6-(trifluoromethyl)pyridin-2-yl)cyclohexyl)oxy)-2-methyl-N-(pyrimidin-4-yl)pyridine-3-sulfonamide] | 0.985 | 4.59
3 | 5-Chloro-6-(((1S,2S,4S)-4-(3-chlorophenyl)-2-(dimethylamino)cyclohexyl)oxy)-N-(pyrimidin-4-yl)pyridine-3-sulfonamide [Example 27] | 7.12 | 0.574
4 | Cc1nc(O[C@H]2CC[C@H](c3cc(Cl)ccc3Cl)C[C@@H]2N(C)C)ccc1S(=O)(=O)Nc1ccncn1 [Example 39, 6-(((1S,2S,4S)-4-(2,5-dichlorophenyl)-2-(dimethylamino)cyclohexyl)oxy)-2-methyl-N-(pyrimidin-4-yl)pyridine-3-sulfonamide formate] |  | 0.645
5 | Cc1nc(O[C@H]2CC[C@H](c3cccc(C(F)(F)F)c3)C[C@@H]2N2CCOCC2)ccc1S(=O)(=O)Nc1ccncn1 [Example 55, 2-methyl-6-(((1S,2S,4S)-2-morpholino-4-(3-(trifluoro-methyl)phenyl)cyclohexyl)-oxy)-N-(pyrimidin-4-yl)pyridine-3-sulfonamide] |  | 0.527
6 | CN(C)[C@H]1C[C@@H](c2cccc(OC(F)(F)F)c2)CC[C@@H]1Oc1ncc(S(=O)(=O)Nc2ccncn2)cc1Cl [Example 13, 5-chloro-6-(((1S,2S,4S)-2-(dimethylamino)-4-(3-(trifluoromethoxy)phenyl)cyclohexyl)oxy)-N-(pyrimidin-4-yl)pyridine-3-sulfonamide] |  | 1.55
7 | CN(C)[C@H]1C[C@@H](c2cccc(C(F)(F)F)c2)CC[C@@H]1Nc1ccc(S(=O)(=O)Nc2ccncn2)cn1 (racemic) [Example 2, 6-(((1S,2S,4S)-2-(Dimethylamino)-4-(3-(trifluoromethyl)phenyl)cyclohexyl)amino)-N-(pyrimidin-4-yl)pyridine-3-sulfonamide] | 9.17 | 0.427
8 | CN(C)[C@H]1C[C@@H](c2cccc(C(F)(F)F)c2)CC[C@@H]1Oc1ccc(S(=O)(=O)Nc2ccncn2)c(C2CC2)n1 [Example 34, 2-Cyclopropyl-6-(((1S,2S,4S)-2-(dimethylamino)-4-(3-(trifluoromethyl)phenyl)-cyclohexyl)oxy)-N-(pyrimidin-4-yl)pyridine-3-sulfonamide] |  | 154
9 | Cc1nc(O[C@H]2CC[C@H](c3ccc(Cl)c(C(F)(F)F)c3)C[C@@H]2N(C)C)ccc1S(=O)(=O)Nc1ccncn1 [Example 36, 6-(((1S,2S,4S)-4-(4-chloro-3-(trifluoromethyl)phenyl)-2-(dimethylamino)cyclohexyl)oxy)-2-methyl-N-(pyrimidin-4-yl)pyridine-3-sulfonamide] |  | 0.247
10 | CN(C)[C@H]1C[C@@H](c2cccc(C(F)(F)F)c2)CC[C@@H]1Oc1ncc(S(=O)(=O)Nc2ccncn2)cc1C(F)(F)F [Example 14, 6-(((1S,2S,4S)-2-(dimethylamino)-4-(3-(trifluoromethyl)phenyl)cyclohexyl)oxy)-N-(pyrimidin-4-yl)-5-(trifluoromethyl)pyridine-3-sulfonamide] |  | 5.08
11 | O=S(=O)(Nc1ccncn1)c1ccc(N[C@H]2CC[C@H](c3cccc(C(F)(F)F)c3)C[C@@H]2N2CCCC2)nc1 [Example 16, N-(pyrimidin-4-yl)-6-(((1S,2S,4S)-2-(pyrrolidin-1-yl)-4-(3-(trifluoromethyl)phenyl)cyclohexyl)-amino)pyridine-3-sulfonamide formate] |  | 2.79
12 | O=S(=O)(Nc1ccncn1)c1ccc(O[C@H]2CC[C@H](c3cccc(C(F)(F)F)c3)C[C@@H]2N2CCCC2)nc1 [Example 17, N-(pyrimidin-4-yl)-6-(((1S,2S,4S)-2-(pyrrolidin-1-yl)-4-(3-(trifluoromethyl)phenyl)cyclohexyl)oxy)-pyridine-3-sulfonamide formate] |  | 0.602
13 | Cc1ccc(C(F)(F)F)cc1[C@H]1CC[C@H](Oc2ccc(S(=O)(=O)Nc3ccncn3)c(C)n2)[C@@H](N(C)C)C1 [Example 54, 6-(((1S,2S,4S)-2-(dimethyl-amino)-4-(2-methyl-5-(trifluoromethyl)phenyl)-cyclohexyl)oxy)-2-methyl-N-(pyrimidin-4-yl)pyridine-3-sulfonamide] |  | 0.404
